Here are results for one compound from publication PMC9133015 (Nature Communications, 2022).

The structures appear in SMILES notation. Values joined by “and” are separate entries in the source; they are usually repeats but may differ in a detail not shown here. Equal entries are not always repeated.

Experiment in all cases: Kinase inhibitor specificity profiling (Reaction Biology Corporation)
Common to all, as to type: biochemical
What all share (set-up): % Enzyme Activity (relative to DMSO controls): concentration or dose not given beside the values

Experiment [1] concerns the target T1, panel of 370 protein kinases (Homo sapiens, UniProt O75716).
T1 construct: purchased Reaction Biology Corporation (assay service)
The following applies: 2 h, kinase STK16; read-out: % Enzyme Activity (relative to DMSO controls).

Experiment [2] has as its target T2, panel of 370 protein kinases (Homo sapiens, UniProt Q15835).
T2 construct: purchased Reaction Biology Corporation (assay service)
The following applies: 2 h, kinase GRK1; read-out: % Enzyme Activity (relative to DMSO controls).

Experiment [3] has as its target T3, panel of 370 protein kinases (Homo sapiens, UniProt Q8IVT5).
T3 construct: purchased Reaction Biology Corporation (assay service)
The following applies: 2 h, kinase KSR1; read-out: % Enzyme Activity (relative to DMSO controls).

Experiment [4] has as its target T4, panel of 370 protein kinases (Homo sapiens, UniProt Q96BR1).
T4 construct: purchased Reaction Biology Corporation (assay service)
As to conditions: 2 h, kinase SGK3/SGKL; read-out: % Enzyme Activity (relative to DMSO controls).

For experiment [5], the target named is T5, panel of 370 protein kinases (Homo sapiens, UniProt O60674).
T5 construct: purchased Reaction Biology Corporation (assay service)
T5 sequence (O60674 whole entry): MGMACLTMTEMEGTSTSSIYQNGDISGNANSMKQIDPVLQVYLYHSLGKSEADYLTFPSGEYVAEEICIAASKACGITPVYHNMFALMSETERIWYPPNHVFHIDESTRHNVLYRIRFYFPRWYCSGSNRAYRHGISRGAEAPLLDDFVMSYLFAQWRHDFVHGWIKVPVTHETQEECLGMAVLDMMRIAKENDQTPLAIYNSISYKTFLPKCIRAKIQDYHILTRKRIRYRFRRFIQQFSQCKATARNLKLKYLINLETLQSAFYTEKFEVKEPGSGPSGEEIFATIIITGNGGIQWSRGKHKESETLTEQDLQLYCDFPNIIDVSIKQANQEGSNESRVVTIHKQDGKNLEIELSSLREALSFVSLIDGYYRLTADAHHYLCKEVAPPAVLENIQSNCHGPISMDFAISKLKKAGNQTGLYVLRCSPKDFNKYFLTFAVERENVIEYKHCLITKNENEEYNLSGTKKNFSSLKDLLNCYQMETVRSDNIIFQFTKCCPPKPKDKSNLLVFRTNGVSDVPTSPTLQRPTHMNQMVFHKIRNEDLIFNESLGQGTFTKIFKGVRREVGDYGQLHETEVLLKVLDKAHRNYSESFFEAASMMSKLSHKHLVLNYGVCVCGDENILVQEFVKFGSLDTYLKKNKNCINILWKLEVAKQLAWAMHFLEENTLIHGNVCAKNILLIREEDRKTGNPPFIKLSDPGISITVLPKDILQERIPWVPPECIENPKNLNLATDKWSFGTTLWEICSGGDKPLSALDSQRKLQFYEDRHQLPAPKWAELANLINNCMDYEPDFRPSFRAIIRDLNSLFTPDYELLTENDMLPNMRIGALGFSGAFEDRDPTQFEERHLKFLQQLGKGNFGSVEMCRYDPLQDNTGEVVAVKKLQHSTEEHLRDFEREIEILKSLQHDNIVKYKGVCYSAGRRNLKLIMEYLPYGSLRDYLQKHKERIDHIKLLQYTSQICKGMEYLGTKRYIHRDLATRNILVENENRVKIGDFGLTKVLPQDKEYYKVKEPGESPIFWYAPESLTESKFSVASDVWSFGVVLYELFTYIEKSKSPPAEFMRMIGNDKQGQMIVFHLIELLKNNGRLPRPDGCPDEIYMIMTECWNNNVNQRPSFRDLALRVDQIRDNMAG
The following applies: kinase JAK2.

Experiment [6] has as its target T6, panel of 370 protein kinases (Homo sapiens, UniProt Q92918).
T6 construct: purchased Reaction Biology Corporation (assay service)
As to conditions: 2 h, kinase HPK1/MAP4K1; read-out: % Enzyme Activity (relative to DMSO controls).

The target in experiment [7] is T7, panel of 370 protein kinases (Homo sapiens, UniProt P29317).
T7 construct: purchased Reaction Biology Corporation (assay service)
The following applies: 2 h, kinase EPHA2; read-out: % Enzyme Activity (relative to DMSO controls).

For experiment [8], the target named is T8, panel of 370 protein kinases (Homo sapiens, UniProt P35916).
T8 construct: purchased Reaction Biology Corporation (assay service)
The following applies: 2 h, kinase FLT4/VEGFR3; read-out: % Enzyme Activity (relative to DMSO controls).

Experiment [9] concerns the target T9, panel of 370 protein kinases (Homo sapiens, UniProt O14757).
T9 construct: purchased Reaction Biology Corporation (assay service)
As to conditions: kinase CHK1.

In experiment [10] the target is T10, panel of 370 protein kinases (Homo sapiens, UniProt P42684).
T10 construct: purchased Reaction Biology Corporation (assay service)
T10 sequence (P42684 whole entry): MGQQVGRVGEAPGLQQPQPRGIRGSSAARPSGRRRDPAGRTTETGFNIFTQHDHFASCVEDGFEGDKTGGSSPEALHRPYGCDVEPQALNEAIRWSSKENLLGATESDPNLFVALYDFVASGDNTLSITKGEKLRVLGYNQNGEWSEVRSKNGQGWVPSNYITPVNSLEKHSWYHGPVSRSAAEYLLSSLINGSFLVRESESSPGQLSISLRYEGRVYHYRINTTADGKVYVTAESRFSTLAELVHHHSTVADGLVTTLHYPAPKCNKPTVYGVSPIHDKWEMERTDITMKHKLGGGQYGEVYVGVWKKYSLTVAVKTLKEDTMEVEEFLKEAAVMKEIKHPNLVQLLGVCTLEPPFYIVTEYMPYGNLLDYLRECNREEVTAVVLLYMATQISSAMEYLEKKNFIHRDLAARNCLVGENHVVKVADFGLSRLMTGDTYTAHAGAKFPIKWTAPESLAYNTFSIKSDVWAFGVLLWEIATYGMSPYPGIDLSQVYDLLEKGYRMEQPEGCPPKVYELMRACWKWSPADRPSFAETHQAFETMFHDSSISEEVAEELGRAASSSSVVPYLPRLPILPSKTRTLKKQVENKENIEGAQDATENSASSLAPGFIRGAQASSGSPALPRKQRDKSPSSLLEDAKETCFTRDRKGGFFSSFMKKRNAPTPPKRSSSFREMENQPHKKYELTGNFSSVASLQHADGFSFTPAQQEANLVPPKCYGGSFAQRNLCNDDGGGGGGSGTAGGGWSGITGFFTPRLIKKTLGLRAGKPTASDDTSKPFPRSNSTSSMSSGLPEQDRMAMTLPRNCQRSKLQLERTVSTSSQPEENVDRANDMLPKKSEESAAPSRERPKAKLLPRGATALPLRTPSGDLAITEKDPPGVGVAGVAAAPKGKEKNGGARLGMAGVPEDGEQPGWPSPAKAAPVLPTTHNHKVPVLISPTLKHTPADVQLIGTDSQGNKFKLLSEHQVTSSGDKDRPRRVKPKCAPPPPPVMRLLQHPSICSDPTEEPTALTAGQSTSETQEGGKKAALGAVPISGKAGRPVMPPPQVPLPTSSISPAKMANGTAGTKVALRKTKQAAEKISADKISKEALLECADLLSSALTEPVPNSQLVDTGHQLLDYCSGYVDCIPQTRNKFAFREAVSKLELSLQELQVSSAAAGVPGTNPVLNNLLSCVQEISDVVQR
The following applies: 2 h, kinase ABL2/ARG; read-out: % Enzyme Activity (relative to DMSO controls).

The target in experiment [11] is T11, panel of 370 protein kinases (Homo sapiens, UniProt O96017).
T11 construct: purchased Reaction Biology Corporation (assay service)
The following applies: 2 h, kinase CHK2; read-out: % Enzyme Activity (relative to DMSO controls).

For experiment [12], the target named is T12, panel of 370 protein kinases (Homo sapiens, UniProt O75460).
T12 construct: purchased Reaction Biology Corporation (assay service)
The following applies: 2 h, kinase ERN1/IRE1; read-out: % Enzyme Activity (relative to DMSO controls).

Experiment [13] has as its target T13, panel of 370 protein kinases (Homo sapiens, UniProt P41240).
T13 construct: purchased Reaction Biology Corporation (assay service)
The following applies: kinase CSK.

Experiment [14] deals with T14, panel of 370 protein kinases (Homo sapiens, UniProt Q05655).
T14 construct: purchased Reaction Biology Corporation (assay service)
As to conditions: 2 h, kinase PKCd; read-out: % Enzyme Activity (relative to DMSO controls).

Experiment [15] has as its target T15, panel of 370 protein kinases (Homo sapiens, UniProt O15530).
T15 construct: purchased Reaction Biology Corporation (assay service)
As to conditions: 2 h, kinase PDK1/PDPK1; read-out: % Enzyme Activity (relative to DMSO controls).

The target of experiment [16] is T16, panel of 370 protein kinases (Homo sapiens, UniProt P09769).
T16 construct: purchased Reaction Biology Corporation (assay service)
The following applies: 2 h, kinase FGR; read-out: % Enzyme Activity (relative to DMSO controls).

The target in experiment [17] is T17, panel of 370 protein kinases (Homo sapiens, UniProt P29322).
T17 construct: purchased Reaction Biology Corporation (assay service)
The following applies: 2 h, kinase EPHA8; read-out: % Enzyme Activity (relative to DMSO controls).

Experiment [18] addresses T18, panel of 370 protein kinases (Homo sapiens, UniProt P06241).
T18 construct: purchased Reaction Biology Corporation (assay service)
The following applies: 2 h, kinase FYN; read-out: % Enzyme Activity (relative to DMSO controls).

The target in experiment [19] is T19, panel of 370 protein kinases (Homo sapiens, UniProt Q13555).
T19 construct: purchased Reaction Biology Corporation (assay service)
The following applies: 2 h, kinase CAMK2g; read-out: % Enzyme Activity (relative to DMSO controls).

The target of experiment [20] is T20, panel of 370 protein kinases (Homo sapiens, UniProt P53778).
T20 construct: purchased Reaction Biology Corporation (assay service)
T20 sequence (P53778 whole entry): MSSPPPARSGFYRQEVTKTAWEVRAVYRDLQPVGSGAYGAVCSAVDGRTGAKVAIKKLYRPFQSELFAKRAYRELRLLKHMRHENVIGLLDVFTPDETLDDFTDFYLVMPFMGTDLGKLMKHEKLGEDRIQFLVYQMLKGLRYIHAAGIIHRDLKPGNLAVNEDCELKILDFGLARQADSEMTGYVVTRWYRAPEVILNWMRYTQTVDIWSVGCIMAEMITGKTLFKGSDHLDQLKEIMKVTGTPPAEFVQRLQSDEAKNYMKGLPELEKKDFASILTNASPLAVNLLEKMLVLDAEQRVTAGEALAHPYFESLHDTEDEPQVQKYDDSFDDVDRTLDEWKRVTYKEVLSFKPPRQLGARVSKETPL
As to conditions: 2 h, kinase P38g; read-out: % Enzyme Activity (relative to DMSO controls).

Experiment [21] concerns the target T21, panel of 370 protein kinases (Homo sapiens, UniProt Q8IYT8).
T21 construct: purchased Reaction Biology Corporation (assay service)
The following applies: 2 h, kinase ULK2; read-out: % Enzyme Activity (relative to DMSO controls).

Experiment [22] concerns the target T22, panel of 370 protein kinases (Homo sapiens, UniProt Q9UQB9).
T22 construct: purchased Reaction Biology Corporation (assay service)
The following applies: 2 h, kinase AURORA C; read-out: % Enzyme Activity (relative to DMSO controls).

T13 sequence (P41240 whole entry): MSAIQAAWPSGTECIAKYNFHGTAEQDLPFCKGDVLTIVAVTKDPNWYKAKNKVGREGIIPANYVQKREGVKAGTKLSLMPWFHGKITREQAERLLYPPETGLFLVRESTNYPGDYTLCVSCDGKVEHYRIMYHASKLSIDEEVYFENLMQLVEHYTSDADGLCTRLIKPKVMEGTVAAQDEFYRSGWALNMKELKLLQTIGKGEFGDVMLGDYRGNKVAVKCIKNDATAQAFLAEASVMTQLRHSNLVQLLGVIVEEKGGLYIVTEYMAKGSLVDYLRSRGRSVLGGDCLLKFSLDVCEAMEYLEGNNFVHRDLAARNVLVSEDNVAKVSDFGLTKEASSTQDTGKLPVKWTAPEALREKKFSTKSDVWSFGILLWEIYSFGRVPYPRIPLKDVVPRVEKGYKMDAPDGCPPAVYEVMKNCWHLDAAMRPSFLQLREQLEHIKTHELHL
T9 sequence (O14757 whole entry): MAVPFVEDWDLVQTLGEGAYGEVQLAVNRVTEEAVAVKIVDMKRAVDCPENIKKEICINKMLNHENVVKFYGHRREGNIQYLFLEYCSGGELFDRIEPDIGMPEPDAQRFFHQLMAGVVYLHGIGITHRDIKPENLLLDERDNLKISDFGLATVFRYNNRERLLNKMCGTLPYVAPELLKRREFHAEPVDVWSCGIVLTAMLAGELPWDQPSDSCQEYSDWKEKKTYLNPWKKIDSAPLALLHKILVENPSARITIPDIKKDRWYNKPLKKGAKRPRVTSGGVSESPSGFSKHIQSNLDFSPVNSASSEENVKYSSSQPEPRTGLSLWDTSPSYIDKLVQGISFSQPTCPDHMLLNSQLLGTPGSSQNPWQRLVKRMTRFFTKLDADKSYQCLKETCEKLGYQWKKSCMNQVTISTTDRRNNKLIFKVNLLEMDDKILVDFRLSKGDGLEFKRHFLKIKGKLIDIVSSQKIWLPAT
T2 sequence (Q15835 whole entry): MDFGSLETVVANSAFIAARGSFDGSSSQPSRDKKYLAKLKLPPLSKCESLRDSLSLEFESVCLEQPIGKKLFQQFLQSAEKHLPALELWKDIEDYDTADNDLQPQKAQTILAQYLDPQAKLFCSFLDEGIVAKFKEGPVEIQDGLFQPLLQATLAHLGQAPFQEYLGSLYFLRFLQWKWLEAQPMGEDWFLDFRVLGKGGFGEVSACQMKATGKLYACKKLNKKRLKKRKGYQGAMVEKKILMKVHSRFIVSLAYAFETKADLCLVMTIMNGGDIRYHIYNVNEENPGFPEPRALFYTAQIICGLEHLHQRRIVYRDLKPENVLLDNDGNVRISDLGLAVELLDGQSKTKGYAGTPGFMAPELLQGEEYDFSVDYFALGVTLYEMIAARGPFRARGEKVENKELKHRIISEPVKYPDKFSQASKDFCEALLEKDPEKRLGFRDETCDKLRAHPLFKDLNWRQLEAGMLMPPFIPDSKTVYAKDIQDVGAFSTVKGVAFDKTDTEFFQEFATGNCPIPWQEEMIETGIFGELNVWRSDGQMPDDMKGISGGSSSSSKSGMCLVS
T15 sequence (O15530 whole entry): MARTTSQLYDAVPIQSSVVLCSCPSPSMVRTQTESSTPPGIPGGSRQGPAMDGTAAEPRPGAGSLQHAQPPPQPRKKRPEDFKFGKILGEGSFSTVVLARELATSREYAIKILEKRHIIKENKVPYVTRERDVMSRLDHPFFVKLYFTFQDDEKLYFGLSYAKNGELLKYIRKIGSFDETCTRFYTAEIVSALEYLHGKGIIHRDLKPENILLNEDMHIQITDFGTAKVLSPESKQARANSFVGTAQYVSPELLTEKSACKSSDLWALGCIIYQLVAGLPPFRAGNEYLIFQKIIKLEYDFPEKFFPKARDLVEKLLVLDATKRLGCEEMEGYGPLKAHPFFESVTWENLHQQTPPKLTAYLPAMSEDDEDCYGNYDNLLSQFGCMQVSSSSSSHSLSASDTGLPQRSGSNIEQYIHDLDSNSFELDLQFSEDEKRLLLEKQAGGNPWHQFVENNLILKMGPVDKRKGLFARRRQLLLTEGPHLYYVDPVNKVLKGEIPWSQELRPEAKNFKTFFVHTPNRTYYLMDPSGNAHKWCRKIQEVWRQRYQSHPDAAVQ
T22 sequence (Q9UQB9 whole entry): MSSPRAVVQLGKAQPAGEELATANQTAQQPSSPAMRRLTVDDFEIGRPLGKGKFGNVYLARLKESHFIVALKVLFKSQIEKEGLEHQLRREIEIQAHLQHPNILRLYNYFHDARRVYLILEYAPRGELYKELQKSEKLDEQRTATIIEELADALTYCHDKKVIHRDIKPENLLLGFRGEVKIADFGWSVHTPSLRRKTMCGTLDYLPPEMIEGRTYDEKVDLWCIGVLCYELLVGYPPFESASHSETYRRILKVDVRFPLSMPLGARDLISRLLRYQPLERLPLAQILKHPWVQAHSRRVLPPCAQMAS

For the compound `CCN1CCN(C(=O)c2ccc(Nc3ncc(F)c(-c4ccc5nc(N(C)C)sc5c4)n3)nc2)CC1` [YK-2-69], the remaining activity at 1 µM in experiment [1] was 57.5%; in [2] it was 97.2%; in experiment [3], 94.3%; in [4] it was 95.6%; in [6], 104%; in experiment [7], 103%. The remaining activity at 1 µM in [8] is 75.2%; in experiment [10], 91.2%; in experiment [11], 97.6%; in experiment [12], 89.3%; in experiment [14], 70.9%; in experiment [15] it was 100%. Also, the remaining activity at 1 µM turned out to be 106% in experiment [16]; 102% in experiment [17]; 104% in experiment [18]; 86% in experiment [19]; 98.1% in [20]; 97.9% in [21]. Besides, the remaining activity at 1 µM in experiment [22] came to 94.7%. Moreover, the “% Enzyme Activity (relative to DMSO controls)” value in experiment [5] is 101.21% and 93.21%; in experiment [9], 90.61% and 88.71%; in [13], 102.94% and 101.79%.
